Test results from publication PMC9112332, “Structure-Based Design of α-Substituted Mercaptoacetamides as Inhibitors of the Virulence Factor LasB from Pseudomonas aeruginosa” (ACS Infectious Diseases, 2022).

Legend:
LasB = LasB (Pseudomonas aeruginosa, UniProt Q02RJ6); assay: LasB inhibition assay (FRET-based, in vitro)
Procedure: LasB Inhibition Assay. The purification of LasB from P. aeruginosa P14 supernatant as well
as the subsequent performance of the FRET-based in vitro inhibition assay was performed as
described previously.1 All samples were run in duplicate for each condition, and experiments
were performed independently at least twice.

ColH-PD = ColH-PD (Hathewaya histolytica, UniProt Q46085); assay: biochemical; set-up: species or system C. histolyticum; conditions: for inhibition at 1 µM: read-out: % inh. of ColH-PD @1µM
Chain of ColH-PD (Q46085 331-721 limits assumed): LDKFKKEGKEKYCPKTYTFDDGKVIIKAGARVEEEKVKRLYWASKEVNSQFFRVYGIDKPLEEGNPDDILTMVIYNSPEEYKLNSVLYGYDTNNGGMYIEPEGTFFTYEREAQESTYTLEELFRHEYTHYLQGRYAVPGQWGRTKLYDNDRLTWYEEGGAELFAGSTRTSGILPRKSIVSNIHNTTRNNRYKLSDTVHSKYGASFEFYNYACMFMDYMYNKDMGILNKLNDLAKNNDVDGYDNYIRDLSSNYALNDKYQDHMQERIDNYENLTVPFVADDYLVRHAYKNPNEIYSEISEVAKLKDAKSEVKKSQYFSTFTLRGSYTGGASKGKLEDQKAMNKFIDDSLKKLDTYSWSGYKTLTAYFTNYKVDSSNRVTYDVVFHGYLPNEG

[1] = system: A549 cells treated with wt PA14 supernatant; assay: cells; conditions: Homo sapiens, A549, 24 h, read-out: increase in viability of A549 cells
[2] = system: A549 cells treated with ΔlasB PA14 supernatant; assay type: cell-based, human; conditions: 15% (v/v) ΔlasB PA14 supernatant, MTT
[3] = system: A549 cells treated with wt PA14 supernatant; conditions: 15% (v/v) wt PA14 supernatant, MTT

Chain of LasB (Q02RJ6 198-498): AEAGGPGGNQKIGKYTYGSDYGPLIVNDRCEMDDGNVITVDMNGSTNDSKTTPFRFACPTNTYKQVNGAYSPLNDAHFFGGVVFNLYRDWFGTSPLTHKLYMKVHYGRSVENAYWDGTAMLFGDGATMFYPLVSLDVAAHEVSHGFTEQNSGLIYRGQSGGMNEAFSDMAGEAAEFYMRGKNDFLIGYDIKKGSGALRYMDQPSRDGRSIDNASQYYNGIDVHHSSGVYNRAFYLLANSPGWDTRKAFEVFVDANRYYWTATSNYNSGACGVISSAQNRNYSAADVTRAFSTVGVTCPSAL

SMILES	IC50 (LasB) [µM]	inhibition at 1 µM (ColH-PD) [%]	further results
O=C(Nc1nc2ccccc2[nH]1)C(S)Cc1ccccc1 (stereo not drawn) [Compound 26]			inhibitory activity against LasB (in words) (LasB; compared to compound 23): dramatic decrease in the inhibitory activity
O=C(Nc1ccccc1)C(S)Cc1ccc(O)c([N+](=O)[O-])c1 (stereo not drawn) [Compound 16]	2.5 ± 0.2	74 ± 5	
O=C(Nc1ccccc1)C(S)Cc1ccc(O)cc1 (stereo not drawn) [Compound 15]	7.4 ± 0.6	63 ± 2	decrease in activity compared to compound 3 (LasB; LasB IC50 ratio vs compound 3): 15 fold
COc1ccc2nc(NC(=O)C(S)Cc3ccccc3)sc2c1 (stereo not drawn) [Compound 24]	1 ± 0.1		Ki (ColH-PD): 28 ± 1 µM; viability at 50 µM [1]: 80 ± 15%; effect on A549 cells treated with ΔlasB PA14 supernatant (in words) [2]: no effect; effect on viability of A549 cells treated with wt PA14 supernatant (in words) [3]: Dose-dependent effect
Cc1ccc(CC(S)C(=O)Nc2ccccc2)cc1 (stereo not drawn) [Compound 14]	2.8 ± 0.3	69 ± 3	
O=C(Nc1ccccc1)C(S)Cc1ccc(Cl)cc1 (stereo not drawn) [Compound 17]	1.1 ± 0.1		
O=C(Nc1cccnc1)C(S)Cc1ccccc1 (stereo not drawn) [Compound 20]	1.2 ± 0.04		
O=C(Nc1ccncc1)C(S)Cc1ccccc1 (stereo not drawn) [Compound 22]	4.9 ± 0.5		
O=C(Nc1ccc([N+](=O)[O-])cc1)C(S)Cc1ccccc1 (stereo not drawn) [Compound 11]	1 ± 0.1	88 ± 2	
